The values below come from patent publication US20220195275A1, “Biocompatible Oil Herders and Methods of Use” (Texas A&M University, priority 2019, published 2022).

The nature of data set [1]: Conductivity versus temperature / determination of Krafft point. It counts as physicochemical. The conditions noted are these: for Conductivity: SDS (0.1 mol/L) in water. How it is done: The hand-held conductivity/TDS meter CN 6/TDS 6 of Oakton instruments was used to measure the conductivity and the temperature of the sample.
Sodium dodecyl sulfate (Ionic surfactant): sodium dodecyl sulfate in deionized water solution (0.1 mol/l) was prepared in a 200 ml glass beaker. The solution was stored in refrigerator at 5° C. for 24 hours. The sodium dodecyl sulfate surfactant has crystallized below the 5° C. atmosphere. The glass beaker was taken out of the refrigerator and placed on a hot plate stirrer. The conductivity meter probe was immersed into the solution. The dual measuring mode of conductivity meter could measure both the conductivity and the temperature. The solution was slightly heated to remain 0.2° C./min increase. The measured conductivity and temperature data were drawn in FIGS. 2A-2B. […]
Krafft temperature and solubility behavior of the ionic surfactant SDS and the non-ionic surfactant modified konjac glucomannan were discussed in FIGS. 2A-2D. […] The conductivity measurement was proven to be able to identify the Krafft temperature. Krafft temperature is the minimum temperature for surfactant to form micelles. There is an abrupt large solubility increase above the Krafft temperature. Surfactant working temperature should be higher than Krafft temperature for surfactant functioning.
First, 200 ml of SDS in deionized water solution of 0.1 mol/L concentration was prepared in a 200 ml glass beaker. The solution was left in refrigerator at 5° C. for 24 hours. This process has brought about the crystallization of the surfactant. The glass beaker is taken out of the refrigerator and placed on a hot plate stirrer (CORNING PC-420). The probe stick of the conductivity meter (TDS meter CON 6/TDS 6) is inserted into the solution. The dual measuring mode of conductivity meter can measure both the conductivity and the temperature. The conductivity of the solution is recorded from 12° C. and measured till 28° C. The solution is slightly heated to attain a steady temperature rise. The conductivity is measured at regular intervals of temperature (0.2° C. raise) and noted down. The whole process took about 2.5 hours. […]

A short description of data set [2]: Herding efficiency of PEG derivatives and commercial surfactants (slick thickness ratio vs herder concentration). The conditions noted are these: 25° C. How it is done:
Herding surfactant is essentially a surface-active agent. To preliminarily investigate the material herding efficiency to oil, suitable polymer surfactants with […] were tested. Polyethylene glycol (PEG) is a water soluble polymer and easy to couple with hydrophobic chain to form surfactant. The experiments were performed at room temperature. The slick thickness ratio is defined as below: […]
Higher slick thickness ratio implied better herding quality. […] The effectiveness of surfactants at herding oil is directly related to the chemical structure of the PEG derivatives. […] The reason of slick thickness ratio curve of FIG. 8C and FIG. 8D remained flat were assumed to be its internal chemical structure large benzene rings and two side longer carbon chains. The benzene rings and longer carbon chains affected the steric hindrance of materials and largely restricted the hydrophobic side reaction with oil slick. They could not perform herding effect and thus curves in FIG. 8C and FIG. 8D remained flat, and the thickness ratio was close to 1.
More comparisons were tested to study herder efficiency with different commercial surfactants at varying temperatures and salinity. […] In FIG. 9B, the PEG-monolaurate retained high herding ability under 25° C. […]

The test system of data set [3] is black beans, red beans, and pinto beans. The note with it: in vivo.
Source text: Edible black beans, red beans, and pinto beans were purchased from local supermarket. 12 black beans, 12 red beans, and 9 pinto beans were randomly chosen and set aside in lab atmosphere for 7 days. […] Beans were separated into three plastic petri dishes, into which four black beans, four red beans and three pinto beans each were placed. Three water environments were simulated, and beans were immersed with reference sea water, 0.25 wt % pristine KGM in sea water, and 0.25 wt % modified konjac glucomannan in sea water for 7 days.

As for `CCCCCCCCCCCCOS(=O)(=O)[O-].[Na+]` [SDS, sodium dodecyl sulfate], the “Krafft temperature (sudden large increase in conductivity)” value in data set [1] (0.1 mol/L in deionized water) was 14.6 °C. Further, the Conductivity came out at 3.07 mS in data set [1] (13 ° C.); 3.07 mS in data set [1] (13.2 ° C.); 3.09 mS in data set [1] (13.4 ° C.); 3.1 mS in data set [1] (13.6 ° C.); 3.11 mS in data set [1] (13.8 ° C.); 3.11 mS in data set [1] (14 ° C.). The Conductivity in data set [1] (14.2 ° C.) turned out to be 3.12 mS; in data set [1] (14.4 ° C.), 3.14 mS; in data set [1] (14.6 ° C.) it was 3.25 mS; in data set [1] (14.8 ° C.) it was 3.34 mS; in data set [1] (15 ° C.), 3.56 mS; in data set [1] (15.2 ° C.), 3.82 mS. Also, the Conductivity in data set [1] (15.4 ° C.) is recorded as 4.02 mS; in data set [1] (15.6 ° C.), 4.21 mS; in data set [1] (15.8 ° C.), 4.3 mS; in data set [1] (16 ° C.), 4.35 mS; in data set [1] (16.2 ° C.), 4.37 mS; in data set [1] (16.4 ° C.), 4.38 mS. The Conductivity in data set [1] (16.6 ° C.) came out at 4.34 mS; in data set [1] (16.8 ° C.), 4.39 mS; in data set [1] (17 ° C.) it was 4.39 mS; in data set [1] (17.2 ° C.) it was 4.41 mS; in data set [1] (17.4 ° C.), 4.43 mS; in data set [1] (17.6 ° C.), 4.44 mS. Moreover, the Conductivity in data set [1] (17.8 ° C.) came out at 4.45 mS; in data set [1] (18 ° C.) it was 4.49 mS; in data set [1] (18.6 ° C.) it was 4.5 mS; in data set [1] (19 ° C.), 4.51 mS; in data set [1] (19.4 ° C.), 4.53 mS; in data set [1] (20 ° C.), 4.57 mS. Besides, the Conductivity is recorded as 4.6 mS in data set [1] (21 ° C.); 4.65 mS in data set [1] (22 ° C.); 4.67 mS in data set [1] (23 ° C.); 4.7 mS in data set [1] (24 ° C.); 4.72 mS in data set [1] (25 ° C.); 4.75 mS in data set [1] (26 ° C.). The Conductivity is on record as 4.77 mS in data set [1] (27 ° C.) and 4.82 mS in data set [1] (28 ° C.).
Span-20: in data set [2], the herding ability result is given as “good herding ability”.
konjac glucomannan: the “growth (sprouting) of beans” value in data set [3] was “did not affect the growth of the beans”.
